Test results: patent US12599556B2, “Ophthalmic compositions” (BIOTHERAVISION, INC., priority 2021, dated 2026)

Assay: Stability study: assay and related substances by gradient HPLC
Type: physicochemical
Method: The stability of the exemplary compositions was investigated using gradient high performance liquid chromatography analysis at different storage time points of 1 month, 3 months, 6 months, 9 months, and 11 months. The amount of each active ingredient and related degradation substances, pH, osmolality, particle size distribution, and viscosity were measured for each composition at each time point.
The suspension slurry was not irradiation sterilized in the preparation of Panel 1 formulations.
The results of the Panel II stability studies at the accelerated condition (40° C.) for the compositions shown in Table 4 are summarized in Table 6. The suspension slurry of Panel 2 formulations F7, F8, and F9 were irradiation sterilized.

SMILES	Stability of ketorolac tromethamine in the compositions (all compositions of the stability studies)	Degradation of loteprednol etabonate (stability studies)
O=C(c1ccccc1)c1ccc2n1CCC2C(=O)O (centres unmarked) [Ketorolac tromethamine, 2-amino-2-(hydroxymethyl)propane-1,3-diol; 5-benzoyl-2,3-dihydro-1H-pyrrolizine-1-carboxylic acid]	exhibited stability	–
CCOC(=O)O[C@]1(C(=O)OCCl)CC[C@H]2[C@@H]3CCC4=CC(=O)C=C[C@]4(C)[C@H]3[C@@H](O)C[C@@]21C [loteprednol etabonate, chloromethyl (8S,9S,10R,11S,13S,14S,17R)-17-ethoxycarbonyloxy-11-hydroxy-10,13-dimethyl-3-oxo-7,8,9,11,12,14,15,16-octahydro-6H-cyclopenta[a]phenanthrene-17-carboxylate]	–	pH dependency
